Assay results taken from patent publication US5616732A, “Intermediates for difluoroprostacyclins and methods for their production” (Asahi Glass Company Ltd., priority 1994, dated 1997).
Values after ≈ are worked out from the molar mass of the structure shown. Where two headings read alike, the source gives them in different places.

Legend:
[1] = Stability test in an aqueous solution; assay type: physicochemical; conditions: for half-life / remaining at 168 h / remaining at 480 h: physiological saline, 25° C., 10 μg/ml in physiological sodium chloride solution; for remaining at 168 h: 7 days, read-out: Remaining ratio 7 days; for remaining at 480 h: 20 days, read-out: Remaining ratio 20 days
Experimental: A test compound was dissolved in ethanol to a concentration of 1 mg/ml. Then, it was diluted with a physiological sodium chloride solution to obtain a solution having a concentration of 10 μg/ml. The solution was stored at 25° C., and the remaining ratio of the test compound was measured as time passed. The remaining ratio was quantitatively analyzed by an internal standard (methyl benzoate) method using high performance liquid chromatography (Shimadzu LC9A, SPC-6AU; Milipore 805-DS). The column used was YMC AM312 (ODS), and the eluent used was a solvent mixture of acetonitrile and a 1% triethylamine-phosphoric acid buffer solution (pH6.3).

[2] = tested on: human platelets; assay: Platelet aggregation inhibitory activities in vitro (ADP-induced, human platelet-rich plasma); assay type: cell-based; conditions: for IC50: Homo sapiens, Platelet, ADP final concentration 4 μM, 37° C.; for platelet aggregation inhibitory activities (in words): compared with natural type prostacyclin or other compounds
Experimental: Platelet aggregation inhibitory activities of test compounds in vitro were measured by using human platelets.
Into a plastic container containing one volume of a 3.8% sodium citrate solution, 9 volumes of blood of a healthy person was collected, and the container was gently turned over for admixing. The mixture was centrifugally separated at 1,000 rpm for 10 minutes at room temperature, whereupon the supernatant was taken as a platelet-rich plasma (PRP). The lower layer was further centrifugally separated at 3,000 rpm for 15 minutes at room temperature, whereupon the supernatant was taken as a platelet-poor plasma (PPP). PRP was diluted with PPP so that the number of platelets became about 30×10^4 /μl. An aggregometer was calibrated, and then 200 μl of PRP thus prepared was heated at 37° C. for one minute. Then, 25 μl of a solution obtained by diluting a test compound with a physiological sodium chloride solution, was added thereto, and the mixture was heated at 37° C. for one minute. Then, […] of an adenosine-5'-1.5 sodium diphosphate (ADP, Sigma) solution was added thereto so that the final concentration would be 4 μM, whereby the change in transmittance was recorded by the aggregometer. The transmittance was measured with respect to the solution immediately after dissolving the test compound in the physiological sodium chloride solution and the solution after leaving it at 25° C. for 24 hours. The solution of the test compound was dissolved in a physiological sodium chloride solution and then used by diluting it with a physiological sodium chloride solution.
Aggregation inhibition (%)=(1-T/T0)×100
T0 : Transmittance in the case where the physiological sodium chloride solution was added.
T: Transmittance in the case where the test compound was added.

[3] = cited from earlier work
[4] = solution immediately after dissolving, read-out: IC50 Immediately after preparation
[5] = solution left at 25° C. for 24 hours, read-out: IC50 24 hours later

SMILES | half-life [1] [days] | remaining at 168 h [1] [%] | remaining at 480 h [1] [%] | IC50 [2, 4] [µg/mL] | IC50 [2, 5] [µg/mL] | platelet aggregation inhibitory activities (in words) [2] | half-life ([3]; reported in literature) | half-life ([3]; as mentioned above, conditions not restated) | half-life in an aqueous solution ([3]; pH7.48 at 25° C.) [days] | chemical stability (in words) [1] | physiological activities (in words) ([2]; stated generally as physiological activities)
Cc1cccc(C[C@@H](O)/C=C/[C@@H]2[C@@H]3[C@H](C[C@H]2O)O/C(=C\CCCC(=O)O)C3(F)F)c1 [Compound 29, sodium 5-[(1S,5R,6R,7R)-2-oxa-4,4-difluoro-7-hydroxy-6-{(3R)-3-hydroxy-4-(3-methylphenyl)-E-1-butenyl}bicyclo[3.3.0]octan-3-ylidene]pentanoate] | > 90 | 99.1 | 99.3 | > 0.2 | > 0.2 | – | – | – | – | – | –
CCCC[C@H](C)C[C@H](O)/C=C/[C@@H]1[C@@H]2[C@H](C[C@H]1O)O/C(=C\CCCC(=O)O)C2(F)F [Compound 11, sodium 5-[(1S,5R,6R,7R)-2-oxa-4,4-difluoro-7-hydroxy-6-{(3S,5S)-3-hydroxy-5-methyl-E-1-nonenyl}bicyclo[3.3.0]octan-3-ylidene]pentanoate] | > 90 | 102 | 96.8 | 0.0086 | 0.0078 | activities close to natural type prostacyclin | – | – | – | – | –
CCC#CC[C@H](C)[C@@H](O)/C=C/[C@@H]1[C@@H]2[C@H](C[C@H]1O)O/C(=C\CCCC(=O)O)C2(F)F [Compound 27] | > 90 | 99.5 | 100 | 0.0084 (≈ 0.0204 µM) | 0.008 (≈ 0.0194 µM) | activities close to natural type prostacyclin | – | – | – | – | –
CCCCC[C@H](O)C#C[C@@H]1[C@H]2C/C(=C/CCCC(=O)O)O[C@H]2C(F)(F)[C@H]1O [10,10-difluoro-13,14-dehydroprostacyclin] | – | – | – | – | – | – | about 24 hours | – | – | – | –
CCCCC[C@H](O)/C=C/[C@@H]1[C@H]2C/C(=C/CCCC(=O)O)O[C@H]2C[C@H]1O [natural type prostacyclin] | – | – | – | – | – | – | – | about 10 minutes | 0.00729 | – | –
CCCCC[C@H](O)C#C[C@@H]1[C@@H]2[C@H](C[C@H]1O)O/C(=C\CCCC(=O)O)C2(F)F [Compound 31, sodium 5-[(1S,5R,6R,7R)-2-oxa-4,4-difluoro-7-hydroxy-6-{(3S)-3-hydroxy-1-octynyl}bicyclo[3.3.0]octan-3-ylidene]pentanoate, reference compound] | > 90 | 99.5 | 97 | 0.0737 | 0.0758 | low activities as compared with other compounds | – | – | – | chemical stability substantially equal to other compounds | physiological activities are inadequate and substantially lower than natural type prostacyclin
CCCCC[C@H](O)/C=C/[C@@H]1[C@H]2C/C(=C/CCCC(=O)O)O[C@H]2C[C@H]1O [PGI2 Na, reference compound] | – | – | – | 0.0021 (≈ 0.00596 µM) | > 0.2 | – | – | – | – | – | –
CCC#CCC(C)[C@H](O)/C=C/[C@@H]1[C@@H]2[C@H](C[C@H]1O)O/C(=C\CCCC(=O)O)C2(F)F (stereo partly drawn) [Compound 15, sodium 5-[(1S,5R,6R,7R)-2-oxa-4,4-difluoro-7-hydroxy-6-{(3S,4RS)-3-hydroxy-4-methyl-E-1-nonen-6-ynyl}bicyclo-[3.3.0]octan-3-ylidene]pentanoate] | > 90 | 98.9 | 97.8 | 0.00079 | 0.00078 | even higher activities than natural type prostacyclin | – | – | – | – | –
CCC#CC[C@H](C)[C@H](O)/C=C/[C@@H]1[C@@H]2[C@H](C[C@H]1O)O/C(=C\CCCC(=O)O)C2(F)F [Compound 17, sodium 5-[(1S,5R,6R,7R)-2-oxa-4,4-difluoro-7-hydroxy-6-{(3S,4S)-3-hydroxy-4-methyl-E-1-nonen-6-ynyl}bicyclo[3.3.0]octan-3-ylidene]pentanoate] | > 90 | 102 | 100 | 0.00038 | 0.00039 | even higher activities than natural type prostacyclin | – | – | – | – | –
CCC#CCC(C)[C@@H](O)/C=C/[C@@H]1[C@@H]2[C@H](C[C@H]1O)O/C(=C\CCCC(=O)O)C2(F)F (stereo partly drawn) [Compound 25, sodium 5-[(1S,5R,6R,7R)-2-oxa-4,4-difluoro-7-hydroxy-6-{(3R,4RS)-3-hydroxy-4-methyl-E-1-none-6-ynyl}bicyclo[3.3.0]octan-3-ylidene]pentanoate] | > 90 | 101 | 99.8 | 0.027 | 0.0281 | – | – | – | – | – | –
Cc1cccc(C[C@H](O)/C=C/[C@@H]2[C@@H]3[C@H](C[C@H]2O)O/C(=C\CCCC(=O)O)C3(F)F)c1 [Compound 21, sodium 5-[(1S,5R,6R,7R)-2-oxa-4,4-difluoro-7-hydroxy-6-{(3S)-3-hydroxy-4-(3-methylphenyl)-E-1-butenyl}bicyclo[3.3.0]octan-3-ylidene]pentanoate] | > 90 | 101 | 100 | 0.0087 | 0.0089 | – | – | – | – | – | –
CCCC[C@H](C)C[C@@H](O)/C=C/[C@@H]1[C@@H]2[C@H](C[C@H]1O)O/C(=C\CCCC(=O)O)C2(F)F [Compound 23] | > 90 | 100 | 100 | 0.059 (≈ 0.142 µM) | 0.0582 (≈ 0.14 µM) | – | – | – | – | – | –
CCCCC[C@H](O)/C=C/[C@@H]1[C@@H]2[C@H](C[C@H]1O)O/C(=C\CCCC(=O)O)C2(F)F [Compound 19, sodium 5-[(1S,5R,6R,7R)-2-oxa-4,4-difluoro-7-hydroxy-6-{(3S)-3-hydroxy-E-1-octenyl}bicyclo[3.3.0]octan-3-ylidene]pentanoate] | > 90 | 99.3 | 97.2 | 0.0561 | 0.0604 | – | – | – | – | – | –
O=C(O)CCC/C=C1\O[C@H]2C[C@@H](O)[C@H](/C=C/[C@@H](O)C3CCCC3)[C@H]2C1(F)F [Compound 13, sodium 5-[(1S,5R,6R,7R)-2-oxa-4,4-difluoro-7-hydroxy-6-{(3S)-3-cyclopentyl-3-hydroxy-E-1-propenyl}bicylco[3.3.0]octan-3-ylidene]pentanoate] | > 90 | 100 | 98 | 0.0663 | 0.0629 | – | – | – | – | – | –
